Counter-ions that a name gives are not always drawn.
Assays:
[1] = biological target: T1, rat FAAH (Rattus norvegicus, UniProt P97612); assay: Assay Method 2: FAAH assay, 3H-anandamide hydrolysis in homogenate of SK-N-MC cells transfected with rat FAAH; assay type: biochemical; settings: average of results, > = solubility limit or highest concentration tested
T1 sequence (P97612 1-579): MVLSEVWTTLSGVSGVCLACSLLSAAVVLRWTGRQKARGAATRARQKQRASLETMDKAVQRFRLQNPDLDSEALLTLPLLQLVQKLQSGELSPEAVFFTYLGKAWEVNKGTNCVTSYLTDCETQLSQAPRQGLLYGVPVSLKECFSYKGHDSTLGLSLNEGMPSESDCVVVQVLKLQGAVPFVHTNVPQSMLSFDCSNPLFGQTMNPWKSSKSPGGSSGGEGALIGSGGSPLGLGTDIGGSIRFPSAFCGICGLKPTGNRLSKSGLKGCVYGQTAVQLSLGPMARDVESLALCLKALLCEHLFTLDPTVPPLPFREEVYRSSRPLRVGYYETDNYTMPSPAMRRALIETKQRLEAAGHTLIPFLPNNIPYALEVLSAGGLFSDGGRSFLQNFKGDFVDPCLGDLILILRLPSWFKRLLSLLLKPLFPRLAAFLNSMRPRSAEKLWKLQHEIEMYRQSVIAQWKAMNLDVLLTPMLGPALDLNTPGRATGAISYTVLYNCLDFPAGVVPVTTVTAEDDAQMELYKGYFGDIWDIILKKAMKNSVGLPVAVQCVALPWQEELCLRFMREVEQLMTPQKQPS
Method in brief: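 Homogenate of SK-N-MC cells stably transfected with rat FAAH cDNA (G418-selected clones) in pH 9 Tris/EDTA/glycerol/Triton buffer. Incubated with compound and 80 nM final [3H]-anandamide for 1 h at rt. Released [3H]-ethanolamine separated from substrate on activated charcoal filters and counted by scintillation.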

[2] = biological target: T2, FAAH (Homo sapiens, UniProt O00519); assay: Assay Method 1: FAAH assay, 3H-anandamide hydrolysis in homogenate of T84 cells or SK-N-MC cells transfected with human FAAH; assay type: biochemical; settings: average of results, > = solubility limit or highest concentration tested
T2 sequence (O00519 1-579): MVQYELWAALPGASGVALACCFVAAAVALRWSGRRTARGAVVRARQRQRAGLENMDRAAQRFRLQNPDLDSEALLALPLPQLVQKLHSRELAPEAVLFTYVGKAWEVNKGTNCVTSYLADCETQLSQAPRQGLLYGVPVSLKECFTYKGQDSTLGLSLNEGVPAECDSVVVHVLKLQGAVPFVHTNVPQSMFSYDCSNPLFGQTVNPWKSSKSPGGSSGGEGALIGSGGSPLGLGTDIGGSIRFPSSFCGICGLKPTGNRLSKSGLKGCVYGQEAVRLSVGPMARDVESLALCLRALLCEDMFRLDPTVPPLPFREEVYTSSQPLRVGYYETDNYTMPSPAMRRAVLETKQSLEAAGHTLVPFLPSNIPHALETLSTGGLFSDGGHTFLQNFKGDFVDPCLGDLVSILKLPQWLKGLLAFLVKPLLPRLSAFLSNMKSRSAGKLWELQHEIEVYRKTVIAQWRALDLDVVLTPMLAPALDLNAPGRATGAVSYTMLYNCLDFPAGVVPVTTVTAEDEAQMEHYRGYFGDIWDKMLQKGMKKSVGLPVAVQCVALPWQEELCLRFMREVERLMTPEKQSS
Method in brief: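 Homogenates of T84 cells or of SK-N-MC cells stably transfected with human FAAH (G418-selected) were prepared in pH 9 Tris/EDTA/glycerol/Triton buffer. They were incubated with compound and 80 nM final ^3H-anandamide for 1 h at rt. Released ^3H-ethanolamine was separated on activated charcoal and counted by scintillation.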

O=C(Nc1nn[nH]n1)N1CCN(Cc2ccc(Br)cc2)CC1 [Example 177, 4-(4-Bromo-benzyl)-piperazine-1-carboxylic acid (2H-tetrazol-5-yl)-amide]
IC50 [1]: 1700 nM
IC50 [2]: 5000 nM

O=C(Nc1ccon1)N1CCN(Cc2cccc(Oc3ccc(OCC(F)(F)F)cc3)c2)CC1 [Example 137, N-Isoxazol-3-yl-4-{3-[4-(2,2,2-trifluoroethoxy)phenoxy]benzyl}piperazine-1-carboxamide]
IC50 [1]: 360 nM
IC50 [2]: 60 nM

O=C(Nc1noc2ccccc12)N1CCN(Cc2ccc(OCc3ccccc3)cc2)CC1 [Example 112, N-1,2-Benzisoxazol-3-yl-4-[4-(benzyloxy)benzyl]piperazine-1-carboxamide]
IC50 [1]: 270 nM
IC50 [2]: 40 nM

O=C(Nc1noc2ccccc12)N1CCN(Cc2cnc3ccccc3c2)CC1 [Example 117, N-1,2-Benzisoxazol-3-yl-4-(quinolin-3-ylmethyl)piperazine-1-carboxamide]
IC50 [1]: 440 nM
IC50 [2]: 130 nM

O=C(Nc1nn[nH]n1)N1CCN(Cc2ccc3cc[nH]c3c2)CC1 [Example 178, 4-(1H-Indol-6-ylmethyl)-piperazine-1-carboxylic acid (2H-tetrazol-5-yl)-amide]
IC50 [1]: > 10000 nM
IC50 [2]: > 10000 nM

O=C(Nc1noc2ccccc12)N1CCN(Cc2cccc(C#Cc3ccc(Cl)cc3)c2)CC1 [Example 74, N-1,2-Benzisoxazol-3-yl-4-{3-[(4-chlorophenyl)ethynyl]benzyl}-piperazine-1-carboxamide]
IC50 [1]: 325 nM
IC50 [2]: 410 nM

O=C(Nc1cccc2nonc12)N1CCN(Cc2cccc(C#Cc3ccccc3)c2)CC1 [Example 203, N-2,1,3-Benzoxadiazol-4-yl-4-{[3-(phenylethynyl)phenyl]methyl}-piperazine-1-carboxamide]
IC50 [1]: 350 nM
IC50 [2]: 210 nM

O=C(Nc1noc2ccccc12)N1CCN(Cc2ccc(Br)c(F)c2)CC1 [Example 115, N-1,2-Benzisoxazol-3-yl-4-(4-bromo-3-fluorobenzyl)piperazine-1-carboxamide]
IC50 [1]: 25 nM
IC50 [2]: 40 nM

O=C(Nc1ccon1)N1CCN(Cc2cccc(Oc3ccc(S(=O)(=O)C(F)(F)F)cc3)c2)CC1 [Example 158, N-Isoxazol-3-yl-4-(3-{4-[(trifluoromethyl)sulfonyl]phenoxy}benzyl)-piperazine-1-carboxamide]
IC50 [1]: 150 nM
IC50 [2]: 10 nM

O=C(Nc1noc2ccccc12)N1CCN(Cc2cccc(C#Cc3ccc(Cl)c(Cl)c3)c2)CC1 [Example 75, N-1,2-Benzisoxazol-3-yl-4-{3-[(3,4-dichlorophenyl)ethynyl]-benzyl}-piperazine-1-carboxamide]
IC50 [1]: 110 nM
IC50 [2]: 123 nM

N#Cc1ccc(Oc2cccc(CN3CCN(C(=O)Nc4nn[nH]n4)CC3)c2)cc1 [Example 187, 4-[3-(4-Cyanophenoxy)benzyl]-N-2H-tetrazol-5-ylpiperazine-1-carboxamide]
IC50 [1]: 1000 nM
IC50 [2]: 1600 nM

O=C(Nc1nn[nH]n1)N1CCN(Cc2cccc(OCc3ccccc3)c2)CC1 [Example 179, 4-(3-Benzyloxy-benzyl)-piperazine-1-carboxylic acid (2H-tetrazol-5-yl)-amide]
IC50 [1]: 1200 nM
IC50 [2]: 1600 nM

O=C(Nc1cccnn1)N1CCN(Cc2ccc(Br)c(Br)c2)CC1 [Example 195, 4-(3,4-Dibromobenzyl)-N-pyridazin-3-ylpiperazine-1-carboxamide]
IC50 [1]: 310 nM
IC50 [2]: 110 nM

O=C(Nc1cnccn1)N1CCN(Cc2cccc(Oc3ccccc3Cl)c2)CC1 [Example 238, 4-[3-(2-Chlorophenoxy)benzyl]-N-pyrazin-2-ylpiperazine-1-carboxamide]
IC50 [1]: 1600 nM
IC50 [2]: 200 nM

O=C(Nc1noc2ccccc12)N1CCN(Cc2cccc(Oc3ccc(Cl)c(C(F)(F)F)c3)c2)CC1 [Example 205, 4-[3-(4-Chloro-3-trifluoromethyl-phenoxy)-benzyl]-piperazine-1-carboxylic acid benzo[d]isoxazol-3-ylamide trifluoroacetic acid salt]
IC50 [1]: 225 nM
IC50 [2]: 106 nM

O=C(Nc1noc2ccccc12)N1CCN(Cc2ccc(OC(F)(F)F)c(F)c2)CC1 [Example 108, N-1,2-Benzisoxazol-3-yl-4-[3-fluoro-4-(trifluoromethoxy)benzyl]-piperazine-1-carboxamide]
IC50 [1]: 50 nM
IC50 [2]: 140 nM

N#Cc1ccccc1C#Cc1cccc(CN2CCN(C(=O)Nc3noc4ccccc34)CC2)c1 [Example 85, N-1,2-Benzisoxazol-3-yl-4-{3-[(2-cyanophenyl)ethynyl]benzyl}-piperazine-1-carboxamide]
IC50 [1]: 23 nM
IC50 [2]: 18 nM

O=C(Nc1cccnn1)N1CCN(Cc2ccc3[nH]ccc3c2)CC1 [Example 201, 4-(1H-Indol-5-ylmethyl)-N-pyridazin-3-ylpiperazine-1-carboxamide]
IC50 [1]: > 10000 nM
IC50 [2]: > 10000 nM

O=C(Nc1ccc(Cl)nn1)N1CCC(Cc2cccc(C(F)(F)F)c2)CC1 [Example 25, 4-(3-Trifluoromethyl-benzyl)-piperidine-1-carboxylic acid (6-chloro-pyridazin-3-yl)-amide]
IC50 [1]: 1300 nM
IC50 [2]: 1300 nM

O=C(Nc1noc2ccccc12)N1CCN(Cc2cccc(Oc3ccccc3Cl)c2)CC1 [Example 122, N-1,2-Benzisoxazol-3-yl-4-[3-(2-chlorophenoxy)benzyl]piperazine-1-carboxamide]
IC50 [1]: 115 nM
IC50 [2]: 148 nM

O=C(Nc1nn[nH]n1)N1CCN(Cc2cccc(Oc3ccc(OCC(F)(F)F)cc3)c2)CC1 [Example 188, N-2H-Tetrazol-5-yl-4-{3-[4-(2,2,2-trifluoroethoxy)phenoxy]benzyl}-piperazine-1-carboxamide]
IC50 [1]: 20 nM
IC50 [2]: 80 nM

O=C(Nc1cccc2nonc12)N1CCC(Cc2ccc3ccccc3c2)CC1 [Example 15, 4-Naphthalen-2-ylmethyl-piperidine-1-carboxylic acid benzo[1,2,5]oxadiazol-4-ylamide]
IC50 [1]: 23 nM
IC50 [2]: 59 nM

O=C(Nc1noc2ccccc12)N1CCN(Cc2cccc(Oc3ccc(F)c(Cl)c3)c2)CC1 [Example 207, 4-[3-(3-Chloro-4-fluoro-phenoxy)-benzyl]-piperazine-1-carboxylic acid benzo[d]isoxazol-3-ylamide]
IC50 [1]: 46 nM
IC50 [2]: 34 nM

O=C(Nc1ccon1)N1CCN(Cc2cccc(Oc3ccc4ncccc4c3)c2)CC1 [Example 162, N-Isoxazol-3-yl-4-[3-(quinolin-6-yloxy)benzyl]piperazine-1-carboxamide]
IC50 [1]: 6400 nM
IC50 [2]: 240 nM

O=C(Nc1noc2ccccc12)N1CCN(Cc2cccc(Oc3ccc(F)c(C(F)(F)F)c3)c2)CC1 [Example 28, 4-[3-(4-Fluoro-3-trifluoromethyl-phenoxy)-benzyl]-piperazine-1-carboxylic acid benzo[d]isoxazol-3-ylamide trifluoroacetic acid salt]
IC50 [1]: 17 nM
IC50 [2]: 95 nM

O=C(Nc1noc2ccccc12)N1CCN(Cc2cccc(Oc3ccc(SC(F)(F)F)cc3)c2)CC1 [Example 130, N-1,2-Benzisoxazol-3-yl-4-(3-{4-[(trifluoromethyl)sulfanyl]phenoxy}-benzyl)piperazine-1-carboxamide]
IC50 [1]: 4 nM
IC50 [2]: 20 nM

O=C(Nc1ccon1)N1CCN(Cc2cccc(Oc3ccc4ccccc4c3)c2)CC1 [Example 150, 4-[3-(Naphthalen-2-yloxy)-benzyl]-piperazine-1-carboxylic acid isoxazol-3-ylamide]
IC50 [1]: 1200 nM
IC50 [2]: 400 nM

Cc1cc(NC(=O)N2CCN(Cc3cccc(Oc4ccc(Cl)cc4)c3)CC2)no1 [Example 164, 4-[3-(4-Chlorophenoxy)benzyl]-N-(5-methylisoxazol-3-yl)piperazine-1-carboxamide]
IC50 [1]: 7000 nM
IC50 [2]: 141 nM

O=C(Nc1ccon1)N1CCN(Cc2cccc(Oc3ccc(F)c(F)c3)c2)CC1 [Example 153, 4-[3-(3,4-Difluorophenoxy)benzyl]-N-isoxazol-3-ylpiperazine-1-carboxamide]
IC50 [1]: 8000 nM
IC50 [2]: 460 nM
